Assay results: patent US20210213001A1, “METHOD OF TREATING A SLEEP BREATHING DISORDER” (Monash University, priority 2018, published 2021)

What was measured:
[1] = tested on: anaesthetised, hyperventilated Domperidone-treated lamb; assay: Periodic breathing induced by transient hyperventilation in the anaesthetised Domperidone-treated lamb (model of elevated loop gain); assay type: in vivo; settings: for effect on average value of loop gain across the epoch / effect on epoch duration / effect on number of cycles in epochs of periodic breathing following hyperventilation / number of cycles of ventilation and apnea in the epoch of periodic breathing / duration of the epoch of periodic breathing / average value of loop gain across the epoch of periodic breathing: 5 mg/kg i.v.; for effect on average value of loop gain across the epoch / effect on epoch duration / effect on number of cycles in epochs of periodic breathing following hyperventilation: before vs after drug, Retigabine lambs 1-3, Flupirtine lamb 4; for number of cycles of ventilation and apnea in the epoch of periodic breathing / duration of the epoch of periodic breathing / average value of loop gain across the epoch of periodic breathing: single lamb; for number of cycles of ventilation and apnea in the epoch of periodic breathing / duration of the epoch of periodic breathing: about 1 hour after drug; for number of cycles of ventilation and apnea in the epoch of periodic breathing: same lamb before drug: 30 (Retigabine lamb), 24 (Flupirtine lamb); for duration of the epoch of periodic breathing: same lamb before drug: 6 minutes (Retigabine lamb), 320 seconds (Flupirtine lamb); for average value of loop gain across the epoch of periodic breathing: duty ratio method, same lamb before drug: 1.71 (Retigabine lamb), 1.51 (Flupirtine lamb)
Text: To determine the effects of the KCNQ channel openers Retigabine and Flupirtine on loop gain and periodic breathing in the anaesthetised, hyperventilated Domperidone-treated lamb.
This animal model provides a robust preparation to test the effects of candidate drugs for the treatment of disordered breathing associated with increased peripheral chemosensitivity and elevated loop gain.
Young lambs (Merino/Border-Leicester cross, 14-18 kg) were instrumented surgically and maintained through the experimental protocol according to the method described by Edwards et al. (2008). Briefly, a non-occlusive catheter was placed in the left jugular vein for the induction of anaesthesia using a loading dose of ketamine hydrochloride (5 mg/kg) followed by alpha-chloralose (80 mg/kg as a starting bolus, then as a continuous infusion at 20 mg/kg/hr. Supplemental doses of alpha-chloralose were administered as needed to maintain adequate anaesthesia. A glucose-saline solution was infused through the same catheter to maintain fluid levels (5% glucose in 0.9% saline at 4 ml/kg/hr). A tracheal tube was inserted and connected to a dual intermittent mechanical ventilator (IMV)/high frequency oscillatory ventilator (Humming2; BMO-20H) used in the IMV mode. Use of a 4-way Hans Rudolf valve enabled the lamb to be ventilated artificially or to breathe spontaneously from a circuit through which a flow of gas was maintained at 45 L/min, or from the room air. Measurements of respiratory flow, tidal volume and end-expired gases were made on the tracheal line. Respiratory flow was measured using a Hans Rudolph (3500A) pneumotachograph that was linear up to 35 l/min, in conjunction with a Gaeltec 8T-2 differential pressure transducer connected to a carrier amplifier (Hewlett Packard 8805B) and thence to an HP-8815A electronic integrator to determine tidal volume. Non-occlusive catheters were placed in the right jugular vein and a carotid artery for the intravenous administration of drugs, the sampling of venous and arterial blood gases and the monitoring of blood pressure. Arterial blood pressure was measured using a Micron MP-15 blood pressure transducer connected to a Hewlett-Packard 8805B carrier amplifier. A rectal probe was used to monitor body temperature, which was maintained within the range of 40.0±1.0° C. using an overhead radiant heater. Arterial oxygen saturation was measured continuously using a Nellcor pulse oximeter (Model N-200E) with the probe placed in the trans-mandibular position in such a way that the optical path included the soft tissues of the jaw but excluded the tongue.
Domperidone (0.5 mg/kg in 30 ml 0.1% lactic acid), Flupirtine (as Flupirtine maleate, 5 mg/kg in 30 ml distilled water) and Retigabine (5 mg/kg in 30 ml distilled water) were each administered over a period of 5 minutes via the jugular vein catheter.
Lambs breathed room air (atmospheric) throughout the experimental protocol. Domperidone was administered at the commencement of the experimental protocol. […] Epochs of periodic breathing were induced by switching the tracheal tube to the ventilator circuit and hyperventilating the lamb with air for at least 5 minutes to reduce end tidal CO2 to a level that produced apnea when the ventilator was switched off. […] Typically, an extended epoch of periodic breathing followed the post-hyperventilation apnea. Once the ventilation parameters for achieving a post-hyperventilation apnea as described above were established for a particular animal, the baseline ventilatory response to hyperventilation was determined by performing two standardised hyperventilation procedures 10-15 minutes apart. The test drug (Flupirtine or Retigabine) was then administered and, approximately 1 hour later, another two hyperventilation procedures were performed 10-15 minutes apart.
Minute ventilation was calculated breath-by-breath using the breath duration determined from the respiratory flow trace and the tidal volume signal from the integrator. […]

young lambs = settings: cited from earlier work

In the case of O=c1[nH]c2ccccc2n1CCCN1CCC(n2c(=O)[nH]c3cc(Cl)ccc32)CC1 [Domperidone], the “epochs of periodic breathing on hyperventilation” value ([1]; Domperidone 0.5 mg/kg alone, 30 minutes or more after administration) is listed as “reliably elicited epochs of periodic breathing”, the “typical duration of epochs of periodic breathing” value ([1]; Domperidone 0.5 mg/kg alone, before test drug) is listed as 2 to 5 min and the “duration of blocking effect” value (young lambs; 0.5 mg/kg dose to a lamb, previous research (Kressin et al. 1986)) is listed as “at least three hours”. For the same compound, the “effect on loop gain of the respiratory control system” value (young lambs; young lambs, Edwards et al. (2008)) was “increases”.
For CCOC(=O)Nc1ccc(NCc2ccc(F)cc2)nc1N [Flupirtine], the “effect on average value of loop gain across the epoch” value [1] was “reduced”, the “effect on epoch duration” value [1] was “reduced” and the “effect on number of cycles in epochs of periodic breathing following hyperventilation” value [1] was “significantly reduced”. For the same compound, the “number of cycles of ventilation and apnea in the epoch of periodic breathing” value [1] was 9 cycles, the “duration of the epoch of periodic breathing” value [1] was 130 s and the “average value of loop gain across the epoch of periodic breathing” value [1] was 1.16.
For CCOC(=O)Nc1ccc(NCc2ccc(F)cc2)cc1N [Retigabine], the “effect on average value of loop gain across the epoch” value [1] was “reduced”, the “effect on epoch duration” value [1] was “reduced” and the “effect on number of cycles in epochs of periodic breathing following hyperventilation” value [1] was “significantly reduced”. For the same compound, the “number of cycles of ventilation and apnea in the epoch of periodic breathing” value [1] was 6 cycles, the “duration of the epoch of periodic breathing” value [1] was 115 s and the “average value of loop gain across the epoch of periodic breathing” value [1] was 1.24.
